According to patent US20230339988A1, “Metal Complexes Of Macrocycles And/Or Isoprenoids And/Or Linear Tetrapyrroles By Mechanochemistry (Grinding Or Milling), Preparation Method Thereof, Sunscreen/Concealer/UV Absorber Thereof, Self-Assembled Coating Material Thereof, Superamphiphilic Material Or Surfaces Thereof, Hair Dyeing Thereof …” (priority 2019, published 2023):

Assay: Solubility in carbon disulfide
Format: physicochemical
Details: test tube
From the text: Carbon disulfide is a non-polar solvent which is commonly used as solvent for metal complexes.
It is clear that all of the reactants reacted by this mechanochemical process. The mechanochemical reaction promotes a chemical change.

solubility in carbon disulfide: completely soluble
Structure (SMILES): COc1cc(/C=C/C(=O)CC(=O)/C=C/c2ccc(O)c(OC)c2)ccc1O [Curcumin]
